This note sets out measurements from US7759302B2, “Peptidic sulfonamides” (Merck Patent GmbH, priority 2003, dated 2010).

This experiment addresses αvβ6 integrin (Homo sapiens, UniProt P06756+P18564). In words: Influence of soluble substances on the binding of biotinylated fibronectin to immobilised αvβ6 (ELISA-type competition binding test). Particulars: competition with biotinylated fibronectin at immobilised αvβ6; standard employed in each experiment. The procedure:
The prepared peptides according to the invention together with competing fibronectin were bound in solution to the immobilised αvβ6 receptor, and the Q value as a measure of the selectivity of the binding of the peptide to be tested to αvβ6 was determined. The Q value is calculated from the quotient of the IC50 values of test peptide and a standard. The standard used was the linear Ac-RTDLDSLR-NH2(SEQ ID NO: 22) (WO01/00660; Pytela et al., 1986, Science 231, 1559). The binding test was carried out in detail as follows:
αvβ6 was immobilised on microtitre plates by dilution of the protein solution in TBS++ and subsequent incubation overnight at 4° C. (100 μl/well). Non-specific binding sites were blocked by incubation (2 h; 37° C.) with 3% (w/v) BSA in TBS++ (200 μl/well). Excess BSA was removed by washing three times with TBSA++. […]
Unbound fibronectin and peptides were removed by washing three times with TBSA++. The bound fibronectin was detected by incubation (1 h; 37° C.) with an alkaline phosphatase-coupled antibiotin antibody (1:20000 in TBSA++; 100 μl/well). […] The colour intensity was determined at 405 nm in the ELISA measuring instrument and adjusted against a blank value. […]
IC50 values for the peptides tested were read off from a graph, and the Q value of the peptide was determined therefrom together with the IC50 of the standard.
A general note: An ELISA detects its analyte on a solid surface through an enzyme-linked reagent.

In turn, “Ac-RTDLDSLR-NH2 [AC-RTDLDSLR-NH2, Ac-RTDLDSLR-NH2]” displayed an IC50 below 100 nM.

For orientation: IC50 means the concentration that gives 50% inhibition.
